How the values were obtained:
L. major DHFR (1mDHFR) = L. major DHFR (1mDHFR) (Leishmania major, UniProt P07382); format: biochemical; settings: hDHFR IC50/L. major DHFR IC50
T. brucei DHFR (tbDHFR) = T. brucei DHFR (tbDHFR) (Trypanosoma brucei brucei, UniProt Q27783); experiment: DHFR inhibition assay (diaphorase/resazurin coupled), T. brucei DHFR; format: biochemical; settings: for Average DHFR selectivity (h/tb)*-DHFR IC50: hDHFR IC50/tbDHFR IC50
hDHFR = hDHFR (Homo sapiens (Human), UniProt P00374); experiment: DHFR inhibition assay (diaphorase/resazurin coupled, fluorescence of resorufin), human DHFR; format: biochemical
T. gondii DHFR (tgDHFR) = T. gondii DHFR (tgDHFR) (Toxoplasma gondii, UniProt Q07422); settings: for Average DHFR selectivity (h/tg): hDHFR IC50/tgDHFR IC50
T. cruzi DHFR (tcDHFR) = T. cruzi DHFR (tcDHFR) (Trypanosoma cruzi, UniProt Q27793); experiment: DHFR inhibition assay (diaphorase/resazurin coupled), T. cruzi DHFR; format: biochemical; settings: for Average DHFR selectivity (h/tc): hDHFR IC50/tcDHFR IC50

Chain of hDHFR (P00374 whole entry): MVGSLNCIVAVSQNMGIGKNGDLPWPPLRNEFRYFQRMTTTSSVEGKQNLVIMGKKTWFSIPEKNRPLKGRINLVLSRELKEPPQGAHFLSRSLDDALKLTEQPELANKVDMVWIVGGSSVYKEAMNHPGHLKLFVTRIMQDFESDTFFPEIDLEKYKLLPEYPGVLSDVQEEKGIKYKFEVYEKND

**Q.** With `Nc1ncc(N2CCN(c3ccc(-c4ccccc4)cc3)CC2)c(N)n1` [Compound 12, 5-(4-([1,1′-biphenyl]-4-yl)piperazin-1-yl)pyrimidine-2,4-diamine] as the molecule, how does the “Average DHFR selectivity (h/lm)*-DHFR IC50” value (L. major DHFR (1mDHFR)) read?
**A.** 29

**Q.** `Nc1ncc(N2CCN(c3cnc4ccccc4c3)CC2)c(N)n1` [Compound 19, 5-(4-(quinolin-3-yl)piperazin-1-yl)pyrimidine-2,4-diamine] was tested. Which “Average DHFR selectivity (h/lm)*-DHFR IC50” value (L. major DHFR (1mDHFR)) did it give?
**A.** 35

**Q.** For `Nc1ncc(N2CCN(c3cccc(-c4cnc(C5CC5)nc4)c3)CC2)c(N)n1` [Compound 86, 5-(4-(3-(2-cyclopropylpyrimidin-5-yl)phenyl)piperazin-1-yl)pyrimidine-2,4-diamine], which “Average DHFR selectivity (h/tb)*-DHFR IC50” value (T. brucei DHFR (tbDHFR)) is on record?
**A.** 330

**Q.** For `Nc1ncc(N2CCN(c3cccc(-c4ccnc(F)c4)c3)CC2)c(N)n1` [Compound 90, 5-(4-(3-(2-fluoropyridin-4-yl)phenyl)piperazin-1-yl)pyrimidine-2,4-diamine], which “Average DHFR selectivity (h/lm)*-DHFR IC50” value (L. major DHFR (1mDHFR)) is on record?
**A.** 27

**Q.** `Cc1ncc(-c2cccc(C3CCN(c4cnc(N)nc4N)CC3)c2)cn1` [Compound 94, 5-(4-(3-(2-methylpyrimidin-5-yl)phenyl)piperidin-1-yl)pyrimidine-2,4-diamine] was tested. Which “tbDHFR pIC50-DHFR primary assay” value (T. brucei DHFR (tbDHFR); Table 13, T. brucei DHFR) did it give?
**A.** 9.05

**Q.** And the “Average DHFR selectivity (h/tb)*-DHFR IC50” value (T. brucei DHFR (tbDHFR))?
**A.** 357

**Q.** And the “hDHFR pIC50-DHFR primary assay” value (hDHFR; Table 13)?
**A.** 6.49

**Q.** For `CCc1ncc(-c2cccc(N3CCN(c4cnc(N)nc4N)CC3)c2)cn1` [Compound 95, 5-(4-(3-(2-ethylpyrimidin-5-yl)phenyl)piperazin-1-yl)pyrimidine-2,4-diamine], which “Average DHFR selectivity (h/tg)” value (T. gondii DHFR (tgDHFR)) is on record?
**A.** 218.78

**Q.** And the “Average DHFR selectivity (h/tb)*-DHFR IC50” value (T. brucei DHFR (tbDHFR))?
**A.** 375

**Q.** `Nc1ncc(N2CCN(c3cccc(-c4cnc(N5CCC5)nc4)c3)CC2)c(N)n1` [Compound 98, 5-(4-(3-(2-(azetidin-1-yl)pyrimidin-5-yl)phenyl)piperazin-1-yl)pyrimidine-2,4-diamine] was tested. Which “Average DHFR selectivity (h/tg)” value (T. gondii DHFR (tgDHFR)) did it give?
**A.** 130.84

**Q.** What about the “Average DHFR selectivity (h/lm)*-DHFR IC50” value (L. major DHFR (1mDHFR)) of the same molecule?
**A.** 48

**Q.** With `Nc1ncc(N2CCN(c3cccc(-c4cnc(Cl)nc4)c3)CC2)c(N)n1` [Compound 100, 5-(4-(3-(2-chloropyrimidin-5-yl)phenyl)piperazin-1-yl)pyrimidine-2,4-diamine] as the molecule, how does the “Average DHFR selectivity (h/tg)” value (T. gondii DHFR (tgDHFR)) read?
**A.** 197.28

**Q.** And the “Average DHFR selectivity (h/tb)*-DHFR IC50” value (T. brucei DHFR (tbDHFR))?
**A.** 522

**Q.** How did the “Average DHFR selectivity (h/tc)” value (T. cruzi DHFR (tcDHFR)) turn out when `Nc1ncc(N2CCN(c3cccc(-c4ccncn4)c3)CC2)c(N)n1` [Compound 102, 5-(4-(3-(pyrimidin-4-yl)phenyl)piperazin-1-yl)pyrimidine-2,4-diamine] was run?
**A.** 103

**Q.** `Nc1ncc(N2CCN(c3cccc(-c4ncccn4)c3)CC2)c(N)n1` [Compound 103, 5-(4-(3-(pyrimidin-2-yl)phenyl)piperazin-1-yl)pyrimidine-2,4-diamine] was tested. Which “tgDHFR pIC50-DHFR primary assay” value (T. gondii DHFR (tgDHFR)) did it give?
**A.** 7.56

**Q.** What about the “hDHFR pIC50-DHFR primary assay” value (hDHFR; Table 11) of the same molecule?
**A.** 5.89

**Q.** How did the “tgDHFR pIC50-DHFR primary assay” value (T. gondii DHFR (tgDHFR)) turn out when `Nc1ncc(N2CCN(c3cccc(-c4cnccn4)c3)CC2)c(N)n1` [Compound 104, 5-(4-(3-(pyrazin-2-yl)phenyl)piperazin-1-yl)pyrimidine-2,4-diamine] was run?
**A.** 7.99

**Q.** And the “hDHFR pIC50-DHFR primary assay” value (hDHFR; Table 11)?
**A.** 5.88

**Q.** How did the “Average DHFR selectivity (h/lm)*-DHFR IC50” value (L. major DHFR (1mDHFR)) turn out when `Nc1ncc(N2CCN(c3cccc(-c4cccnn4)c3)CC2)c(N)n1` [Compound 107] was run?
**A.** 30

**Q.** With `COc1ccc(N2CCN(c3cnc(N)nc3N)CC2)cc1` [Compound 114, 5-(4-(4-methoxyphenyl)piperazin-1-yl)pyrimidine-2,4-diamine] as the molecule, how does the “Average DHFR selectivity (h/tc)” value (T. cruzi DHFR (tcDHFR)) read?
**A.** 144

**Q.** For `Nc1ncc(N2CCN(c3ccc(C(F)(F)F)cc3)CC2)c(N)n1` [Compound 115, 5-(4-(4-(trifluoromethyl)phenyl)piperazin-1-yl)pyrimidine-2,4-diamine], which “Average DHFR selectivity (h/tc)” value (T. cruzi DHFR (tcDHFR)) is on record?
**A.** 132

**Q.** `Nc1ncc(N2CCN(c3ccc(F)cc3)CC2)c(N)n1` [Compound 116, 5-(4-(4-fluorophenyl)piperazin-1-yl)pyrimidine-2,4-diamine] was tested. Which “Average DHFR selectivity (h/tc)” value (T. cruzi DHFR (tcDHFR)) did it give?
**A.** 100

**Q.** With `CN(Cc1cnc2nc(N)nc(N)c2n1)c1ccc(C(=O)N[C@@H](CCC(=O)O)C(=O)O)cc1` [Methotrexate] as the molecule, how does the “tcDHFR pIC50-DHFR primary assay” value (T. cruzi DHFR (tcDHFR); Table 12, T. cruzi DHFR) read?
**A.** 8.96

Source: patent publication US11530198B2, “Compositions and methods for treating infections” (priority 2016, dated 2022)
